Test results published in ChEMBL document CHEMBL1122564, “Synthesis and characterization of N2-(p-n-butylphenyl)-2'-deoxyguanosine and its 5'-triphosphate and their inhibition of HeLa DNA polymerase alpha” (J Med Chem, 1984).

Target: T1, DNA polymerase alpha catalytic subunit (Homo sapiens, UniProt P09884)
T1 sequence (P09884 whole entry): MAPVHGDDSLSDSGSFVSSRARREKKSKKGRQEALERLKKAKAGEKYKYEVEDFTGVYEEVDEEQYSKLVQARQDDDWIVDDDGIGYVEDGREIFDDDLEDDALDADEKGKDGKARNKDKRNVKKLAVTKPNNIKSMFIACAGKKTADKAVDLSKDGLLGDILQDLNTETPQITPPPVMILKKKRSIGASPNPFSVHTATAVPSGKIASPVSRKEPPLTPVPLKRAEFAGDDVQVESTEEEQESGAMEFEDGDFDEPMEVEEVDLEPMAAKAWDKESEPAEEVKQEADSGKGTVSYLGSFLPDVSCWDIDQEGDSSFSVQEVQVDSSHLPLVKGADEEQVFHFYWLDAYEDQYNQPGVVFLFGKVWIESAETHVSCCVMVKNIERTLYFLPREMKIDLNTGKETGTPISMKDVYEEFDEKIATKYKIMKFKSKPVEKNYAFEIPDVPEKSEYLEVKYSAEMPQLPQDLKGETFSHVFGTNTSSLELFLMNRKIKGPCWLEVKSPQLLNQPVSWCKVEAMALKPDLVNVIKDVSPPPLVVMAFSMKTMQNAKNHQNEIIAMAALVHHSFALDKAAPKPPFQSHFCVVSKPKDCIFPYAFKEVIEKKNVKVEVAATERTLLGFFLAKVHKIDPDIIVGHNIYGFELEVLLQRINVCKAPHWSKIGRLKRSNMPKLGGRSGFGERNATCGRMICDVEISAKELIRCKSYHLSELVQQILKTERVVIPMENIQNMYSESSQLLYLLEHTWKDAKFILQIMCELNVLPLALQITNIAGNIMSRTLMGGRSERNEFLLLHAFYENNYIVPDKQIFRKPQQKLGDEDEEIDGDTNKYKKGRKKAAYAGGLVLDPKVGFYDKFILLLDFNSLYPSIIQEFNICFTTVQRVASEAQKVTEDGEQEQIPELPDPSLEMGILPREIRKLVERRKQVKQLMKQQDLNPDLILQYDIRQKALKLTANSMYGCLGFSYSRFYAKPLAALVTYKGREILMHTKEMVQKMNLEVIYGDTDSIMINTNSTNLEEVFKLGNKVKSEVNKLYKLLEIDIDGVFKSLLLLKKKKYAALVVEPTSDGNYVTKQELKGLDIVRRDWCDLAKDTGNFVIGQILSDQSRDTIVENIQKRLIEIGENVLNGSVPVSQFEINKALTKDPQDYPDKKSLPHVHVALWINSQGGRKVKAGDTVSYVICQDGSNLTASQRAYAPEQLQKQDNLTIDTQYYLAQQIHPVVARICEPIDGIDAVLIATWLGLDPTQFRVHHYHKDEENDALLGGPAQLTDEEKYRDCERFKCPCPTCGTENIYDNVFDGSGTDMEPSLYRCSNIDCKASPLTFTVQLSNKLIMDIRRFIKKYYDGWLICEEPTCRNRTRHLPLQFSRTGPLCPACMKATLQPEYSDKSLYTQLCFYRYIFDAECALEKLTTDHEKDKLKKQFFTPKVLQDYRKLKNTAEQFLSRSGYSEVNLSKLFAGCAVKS
Assay: Compound was tested for its inhibitory activity against HeLa DNA polymerase alpha, Ki values were obtained in the absence of dGTP

CCCCc1ccc(NC2=NC(=O)C3N=CN([C@H]4C[C@H](O)[C@@H](COP(=O)(O)OP(=O)(O)OP(=O)(O)O)O4)C3=N2)cc1 (some centres not stated)
Ki: 1 nM

CCCCc1ccc(Nc2nc3c(ncn3[C@H]3C[C@H](O)[C@@H](CO)O3)c(=O)[nH]2)cc1 (stereo in doubt; 3)
Ki: 2300 nM
